The values that follow come from patent US20120115941A1, “Compounds Affecting Glycemic Index” (SACRON INNOVATIONS PTY LIMITED, priority 2009, published 2012).

Common to all, as to type: biochemical
Assay [1] has as its system rat intestinal α-glucosidase. The assay is described as follows: Mammalian α-glucosidase inhibition assay (rat intestinal acetone powder, maltose substrate). The protocol:
(§1) Bakers yeast α-glucosidase [EC 3.2.1.20], and porcine pancreatic α-amylase [EC 3.2.1.1]were used during bioassay guided fractionation. Rat intestinal acetone powder was used as a source of mammalian α-glucosidase. The EnzChek® Ultra Amylase Assay kit (E-33651) was purchased from Molecular Probes (Eugene, Oreg., USA).
(§2) In each bioassay the hydrolysis product was measured using the Victor 2 multi-plate reader (Wallac, Turku, Finland) and all samples were tested in duplicate or triplicate. Non-enzyme controls were subtracted from the enzyme absorbance and the percentage inhibition of test samples was calculated as: […]
(§3) :wherein A and B are the absorbance of the hydrolysis product in the absence and presence of inhibitor, respectively. Percent inhibition values were expressed as mean±standard deviation. The IC50 was the concentration required for 50% inhibition of enzyme activity under the assay conditions, and values were calculated using a four-parameter fit by Microsoft Excel Solver.
Mammalian α-Glucosidase Inhibition Assay
The α-glucosidase inhibitory activity of pure compounds was measured as described previously, with some modifications. The crude enzyme solution was prepared by suspending 50 mg of rat intestinal acetone powder in 0.9% sodium chloride solution (1.5 mL). The mixture was homogenised by sonication in ice-cold water for 10 minutes and then centrifuged at 10,000 g for 30 minutes. The resulting supernatant was used in the assay.
The substrate maltose (3 mM, 20 μL) was added to 96-well plates containing the crude α-glucosidase mixture (20 μL) and sample (10 μL). The microtitre plate was mixed on an orbital shaker for 30 seconds, incubated for 30 minutes at 37° C. and the reaction was stopped by the addition of 2 M Tris buffer (75 μL ). The glucose liberated was measured by adding 30 μL of the reaction mixture to the Glucose Hexokinase assay reagent (170 μL), which was mixed and incubated for 15 minutes at room temperature. The fluorescence of the mixture was measured at λex 340 nm, λem 470 nm.

Assay [2] addresses Bakers yeast α-glucosidase. The assay is described as follows: Yeast α-glucosidase inhibition assay. How it is done:
as §1, §2, §3
Yeast α-Glucosidase Inhibition Assay
Extracts and fractions were dissolved in DMSO at 30 mg/mL or 10 mM for pure compounds, and diluted to working concentrations in sodium acetate buffer (pH 5.5). Final sample concentrations were 50 μg/mL, unless otherwise stated. The substrate, 4-methylumbelliferyl-α-D-glucopyranoside (84 μM, 45 μL), was added to 96-well plates containing 50 μL yeast α-glucosidase (3 mU/mL) and 5 μL of sample. The plate was mixed on an orbital shaker for 30 seconds and incubated for 20 minutes at 37° C. The reaction was stopped by the addition of 100 mM sodium-glycine buffer (100 μL, pH 10.6) and the plate was shaken for a further 30 seconds and the fluorescence intensity was measured at λex 355 nm, λem 460 nm. Fucoidan (20 μg/mL) was used as a positive inhibitor control, and sodium acetate buffer as a negative control.

The target of assay [3] is T1, porcine pancreatic α-amylase (Sus scrofa, UniProt P00690).
T1 sequence (P00690 16-511): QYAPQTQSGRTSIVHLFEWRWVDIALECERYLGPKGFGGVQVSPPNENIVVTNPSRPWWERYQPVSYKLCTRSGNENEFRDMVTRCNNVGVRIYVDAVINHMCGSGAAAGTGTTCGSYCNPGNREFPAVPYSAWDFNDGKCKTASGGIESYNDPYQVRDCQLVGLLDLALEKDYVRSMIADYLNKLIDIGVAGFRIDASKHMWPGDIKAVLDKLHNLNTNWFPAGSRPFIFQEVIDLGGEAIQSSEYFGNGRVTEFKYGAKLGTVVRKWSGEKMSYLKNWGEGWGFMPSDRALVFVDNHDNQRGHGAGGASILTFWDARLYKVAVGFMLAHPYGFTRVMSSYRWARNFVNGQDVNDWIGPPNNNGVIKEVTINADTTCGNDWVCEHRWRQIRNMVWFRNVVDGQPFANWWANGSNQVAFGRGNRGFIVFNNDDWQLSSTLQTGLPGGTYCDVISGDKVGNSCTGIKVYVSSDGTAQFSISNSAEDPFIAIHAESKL
The assay can be described thus: Porcine α-amylase inhibition assay (EnzChek Ultra Amylase Assay kit). The protocol:
Bakers yeast α-glucosidase [EC 3.2.1.20], and porcine pancreatic α-amylase [EC 3.2.1.1]were used during bioassay guided fractionation. Rat intestinal acetone powder was used as a source of mammalian α-glucosidase.
as §2
:wherein A and B are the absorbance of the hydrolysis product in the absence and presence of inhibitor, respectively. Percent inhibition values were expressed as mean±standard deviation.
Porcine α-Amylase Inhibition Assay
This assay was performed using the EnzChek® Ultra Amylase Assay kit. Samples were dissolved in DMSO and diluted with 100 mM of 3-morpholinopropanesulfonic acid (MOPS) buffer (pH 6.9) to give a final concentration of […], unless otherwise stated.

[4] abbreviates: porcine α-amylase, read-out: Amylase (porcine) IC50.

Like-named read-outs stand apart in the source and are kept apart here.

For the molecule `COc1cc(-c2cc(=O)c3c(O)cc(O)cc3o2)cc(OC)c1O` [Compound 4, Tricin, reference compound], the “Glucosidase (rat) % Inhibition at 200 μM” value in assay [1] is reported as 16.1%. The IC50 in assay [2] is 70.6 µM; in assay [3] (Amylase (porcine) IC50, porcine α-amylase), 104 µM.

`COc1cc(C(OC)C(CO)Oc2c(OC)cc(-c3cc(=O)c4c(O)cc(O)cc4o3)cc2OC)ccc1O` (stereo not drawn) [Compound 5, tricin-4′-O-[threo-β-guaiacyl-(7″-O-methyl)-glyceryl]ether]: in assay [1], the “Glucosidase (rat) % Inhibition at 200 μM” value came to 6.1%. For the same molecule, the IC50 was found to be 95.9 µM in assay [2] and 31.9 µM in assay [3] (setting [4]).

With `COc1cc(C(OC)C(CO)Oc2c(OC)cc(-c3cc(=O)c4c(O)cc(O)cc4o3)cc2OC)ccc1O` (stereo not drawn) [Compound 6, tricin-4′-O-[erythro-β-guaiacyl-(7″-O-methyl)-glyceryl]ether], the “Glucosidase (rat) % Inhibition at 200 μM” value in assay [1] came to 6.1%. The IC50 in assay [2] came out at 72 µM; in assay [3] (setting [4]) it was 26.5 µM.

Regarding `COc1cc(C(O)C(COC(=O)C=Cc2ccc(O)cc2)Oc2c(OC)cc(-c3cc(=O)c4c(O)cc(O)cc4o3)cc2OC)ccc1O` (stereo not drawn) [Compound 7, tricin-4′-O-[erythro-β-guaiacyl-(9″-O-p-coumaroyl)-glyceryl]ether], the “Glucosidase (rat) % Inhibition at 200 μM” value in assay [1] (200 µM) is on record as 25.7%. The figures for the IC50 in assay [2] and in assay [3] (setting [4]) were 37.5 µM and 2 µM, respectively.

In the case of `COc1cc(C(O)C(COC(=O)C=Cc2ccc(O)cc2)Oc2c(OC)cc(-c3cc(=O)c4c(O)cc(O)cc4o3)cc2OC)ccc1O` (stereo not drawn) [Compound 8, tricin-4′-O-[threo-β-guaiacyl-(9″-O-p-coumaroyl)-glyceryl]ether], the “Glucosidase (rat) % Inhibition at 200 μM” value in assay [1] (200 µM) is given as 10.0%. The IC50 worked out at 37.9 µM in assay [2] and 0.9 µM in assay [3] (setting [4]). Besides, the “activity against porcine α-amylase, fold greater than acarbose” value in assay [3] (relative to acarbose) was 130 fold.

In the case of `O=c1cc(-c2ccc(O)cc2)oc2cc(O)cc(O)c12` [Compound 18, Apigenin, reference compound], the “Glucosidase (rat) % Inhibition at 200 μM” value in assay [1] is reported as −12.2%. In addition, the IC50 in assay [2] came out at 108 µM.

For the molecule `O=c1cc(-c2ccc(O)c(O)c2)oc2cc(O)cc(O)c12` [Compound 19, Luteolin, reference compound], in assay [1], the “Glucosidase (rat) % Inhibition at 200 μM” value is recorded as 4.8%. Besides, the IC50 is 92.3 µM in assay [2] and 99.5 µM in assay [3] (setting [4]).

In the case of Fucoidan [reference compound], in assay [2] (unit given in the name cell for fucoidan), the “Glucosidase (yeast) IC50” value was 0.82 µg/mL.

One may read the IC50 as the concentration needed to halve the response being measured.
